Measurements as given in paper PMC4263427 (Biochemistry, 2014).

Molecular target: T1, class II fructose 1,6-bisphosphate aldolase (SaFBA) (Staphylococcus aureus, UniProt Q5HE75)
T1 sequence (Q5HE75 1-286): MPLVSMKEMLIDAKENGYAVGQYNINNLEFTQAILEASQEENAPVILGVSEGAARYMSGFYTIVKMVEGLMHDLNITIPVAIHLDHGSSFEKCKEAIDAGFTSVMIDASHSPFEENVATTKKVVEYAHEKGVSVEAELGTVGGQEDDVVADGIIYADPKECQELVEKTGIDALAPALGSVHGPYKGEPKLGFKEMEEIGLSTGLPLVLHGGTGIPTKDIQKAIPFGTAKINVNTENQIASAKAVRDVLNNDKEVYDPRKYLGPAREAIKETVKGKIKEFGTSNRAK
Experiment: coupled fluorescence
Format: biochemical

Ki: 96 ± 22 µM
SMILES: O=C(O)c1ccc2cccc(O)c2n1 [HCA, 8-hydroxyquinoline-2-carboxylic acid]
